Data as given in patent publication US20070264679A1, “Method for analyzing the activity of lipoxygenase using a water-soluble substrate” (Chungnam National University Industry Collaboration …, priority 2006, published 2007).

Tests used:
[1] = biological target: T1, LOX-1 (soybean lipoxygenase) (Glycine max, UniProt P08170); test: pH-dependent oxygenation by LOX, initial velocity of absorbance at 234 nm; assay type: biochemical; conditions: substrate 100 μM; for LOX activity on various pH conditions: 30 sec, 25° C.
T1 construct: purchased Sigma-Aldrich Corp (St. Louis, Mo., USA) lipoxidase Type I-B
T1 sequence (P08170 1-839): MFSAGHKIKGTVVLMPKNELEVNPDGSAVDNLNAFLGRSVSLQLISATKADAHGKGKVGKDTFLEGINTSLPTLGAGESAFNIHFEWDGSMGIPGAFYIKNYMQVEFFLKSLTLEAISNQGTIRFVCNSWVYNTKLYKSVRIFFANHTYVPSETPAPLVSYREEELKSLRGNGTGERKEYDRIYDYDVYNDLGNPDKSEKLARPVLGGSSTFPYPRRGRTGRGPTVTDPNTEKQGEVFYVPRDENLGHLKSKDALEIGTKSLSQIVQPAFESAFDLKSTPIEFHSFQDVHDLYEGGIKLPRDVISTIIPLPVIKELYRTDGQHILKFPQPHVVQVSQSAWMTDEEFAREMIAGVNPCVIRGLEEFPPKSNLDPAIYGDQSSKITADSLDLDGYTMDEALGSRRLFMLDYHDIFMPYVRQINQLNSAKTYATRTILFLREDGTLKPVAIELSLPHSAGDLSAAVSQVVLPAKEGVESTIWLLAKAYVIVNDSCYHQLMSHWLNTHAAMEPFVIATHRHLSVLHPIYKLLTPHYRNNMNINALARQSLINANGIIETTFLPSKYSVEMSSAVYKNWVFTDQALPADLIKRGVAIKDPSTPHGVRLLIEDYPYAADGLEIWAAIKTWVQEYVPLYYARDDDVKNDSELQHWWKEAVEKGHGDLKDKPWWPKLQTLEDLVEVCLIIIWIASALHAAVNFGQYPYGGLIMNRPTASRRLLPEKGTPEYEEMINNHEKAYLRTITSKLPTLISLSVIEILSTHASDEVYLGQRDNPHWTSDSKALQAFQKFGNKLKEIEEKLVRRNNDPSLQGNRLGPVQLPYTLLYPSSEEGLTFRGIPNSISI
Description: FIG. 7 is an absorbance-pH graph showing the effect of pH on the rate of LOX-1-catalyzed oxygenation of linoleoyl-lysoPC where LOX-1 (0.02 units/ml) was incubated with 100 μM of linoleoyl-lysoPC (▪), 100 μM of sodium linoleate (●) or 250 μM of soybean LPC (▴) in buffers of various pHs; 200 mM phosphate (pH 6-8), 50 mM borax (pH 8.5-9.5) and 300 mM sodium bicarbonate (pH 10-11).
LOX-1 (0.02 units/ml) was incubated with linoleoyl-lysoPC (100 μM) in 500 μl of buffers of various pHs (pH 6.0-11) at 25° C. as described before (Began et al, Biochemistry 38 (1999) 13920-13927); 200 mM phosphate (pH 6-8), 50 mM borax (pH 8.5-9.5), 300 mM sodium bicarbonate (pH 10-11). Separately, the oxygenation was started by including LOX-1 (0.02 units/ml) in the reaction mixture containing sodium linoleate (100 μM) in the presence of Tween 20 (25 μM). […]
LO (840 units/ml Sigma, Saint Louis, Mo., USA) was incubated with 1-linoleoyl-lysophosphatidylcholine (100 μM) in 0.5 ml of buffers of various pHs (pH 6.0-11) as shown in Table 4 for 30 sec at 25° C.

Porcine leukocyte LOX = biological target: T2, Porcine leukocyte LOX (Sus scrofa, UniProt P16469); test: Kinetics of oxygenation of linoleoylated substrates by leukocyte LOX; assay type: biochemical; conditions: porcine leukocyte LOX 1.5 units/ml, 100 mM phosphate buffer pH 7.5, 5 mM EDTA; for Vm: 0.03% Tween 20; for Km: substrate 3-100 μM, 0.03% Tween 20, 25° C.
T2 construct: purchased Cayman Chemical Co. (Ann Arbor, Mich., USA)
T2 sequence (P16469 1-663): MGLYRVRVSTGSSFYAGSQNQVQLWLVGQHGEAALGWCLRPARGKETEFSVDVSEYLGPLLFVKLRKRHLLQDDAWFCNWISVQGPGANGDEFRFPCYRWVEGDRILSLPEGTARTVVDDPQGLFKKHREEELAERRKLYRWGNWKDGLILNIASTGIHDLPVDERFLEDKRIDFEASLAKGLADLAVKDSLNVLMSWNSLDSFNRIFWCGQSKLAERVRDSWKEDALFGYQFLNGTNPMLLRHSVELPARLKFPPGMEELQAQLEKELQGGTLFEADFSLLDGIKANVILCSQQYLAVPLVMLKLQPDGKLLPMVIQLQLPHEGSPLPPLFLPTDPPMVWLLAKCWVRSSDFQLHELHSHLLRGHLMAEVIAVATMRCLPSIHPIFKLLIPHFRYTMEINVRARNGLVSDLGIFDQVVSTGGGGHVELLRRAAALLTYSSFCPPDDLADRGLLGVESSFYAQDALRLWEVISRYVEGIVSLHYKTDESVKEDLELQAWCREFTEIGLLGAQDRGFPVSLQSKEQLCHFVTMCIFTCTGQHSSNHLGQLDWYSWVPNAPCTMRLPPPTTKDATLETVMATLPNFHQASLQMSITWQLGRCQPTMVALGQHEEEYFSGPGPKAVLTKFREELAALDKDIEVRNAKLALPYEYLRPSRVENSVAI
Description: Data were expressed as means ±S.D. of results from at least three independent experiments.

| Compound | LOX activity on various pH conditions ([1]; pH 6.5) | LOX activity on various pH conditions ([1]; pH 7) | LOX activity on various pH conditions ([1]; pH 7.5) | LOX activity on various pH conditions ([1]; pH 8) | LOX activity on various pH conditions ([1]; pH 8.5) | LOX activity on various pH conditions ([1]; pH 9) | LOX activity on various pH conditions ([1]; pH 9.5) | LOX activity on various pH conditions ([1]; pH 10) | LOX activity on various pH conditions ([1]; pH 10.5) | LOX activity on various pH conditions ([1]; pH 11) | Vm (Porcine leukocyte LOX) [units/mg] | Km (Porcine leukocyte LOX) [µM] | optimal pH range for oxygenation by LOX-1 ([1]; LOX-1 0.02 units/ml, pH 6-11) | LOX activity on various pH conditions ([1]; pH 6) |
| --- | --- | --- | --- | --- | --- | --- | --- | --- | --- | --- | --- | --- | --- | --- |
| CCCCC/C=C\C/C=C\CCCCCCCC(=O)O [Linoleic acid, linoleic acid] | ◯ | ◯ | ◯ | ◯ | ◯ | ◯ | ◯ | ◯ | ◯ | ◯ | 32.7 ± 1.93 | 31.2 ± 4.6 |  |  |
| CCCCC/C=C\C/C=C\CCCCCCCC(=O)OCC(O)COP(=O)([O-])OCC[N+](C)(C)C (centres unmarked) [Linoleoyl-lysoPC, 1-linoleoyl Lysophosphatidylcholine] |  | ◯ | ◯ | ◯ | ◯ | ◯ |  | ◯ |  | ◯ | 14.42 ± 0.78 | 15.1 ± 1.34 | about 9 | ◯ |
